Source: ChEMBL document CHEMBL1130577, “Synthesis of irreversible HIV-1 protease inhibitors containing sulfonamide and sulfone as amide bond isosteres” (Bioorg Med Chem Lett, 1997)

Legend:
H9 [1] = experiment: Inhibitory activity was evaluated against HIV-1 in H9 and Sup T1 cell lines as assessed by syncytium formation and reverse transcriptase assay; type: functional, cell-based; conditions: Homo sapiens
[2] = biological target: Human immunodeficiency virus type 1 protease (Human immunodeficiency virus 1) (UniProt Q72874); experiment: Bimolecular rate constant for the formation of HIV-1 protease complex was evaluated
[3] = biological target: Human immunodeficiency virus type 1 protease (Human immunodeficiency virus 1, UniProt Q72874); experiment: Compound was tested for its inhibitory activity against HIV-1 protease
H9 [4] = experiment: Inhibitory activity was evaluated against HIV-1 protease by using reverse transcription assay; type: functional, cell-based; conditions: Homo sapiens
Renin = biological target: T1, Renin (Homo sapiens, UniProt P00797); experiment: Inhibition against human renin was determined; IA means inactive
T1 sequence (P00797 whole entry): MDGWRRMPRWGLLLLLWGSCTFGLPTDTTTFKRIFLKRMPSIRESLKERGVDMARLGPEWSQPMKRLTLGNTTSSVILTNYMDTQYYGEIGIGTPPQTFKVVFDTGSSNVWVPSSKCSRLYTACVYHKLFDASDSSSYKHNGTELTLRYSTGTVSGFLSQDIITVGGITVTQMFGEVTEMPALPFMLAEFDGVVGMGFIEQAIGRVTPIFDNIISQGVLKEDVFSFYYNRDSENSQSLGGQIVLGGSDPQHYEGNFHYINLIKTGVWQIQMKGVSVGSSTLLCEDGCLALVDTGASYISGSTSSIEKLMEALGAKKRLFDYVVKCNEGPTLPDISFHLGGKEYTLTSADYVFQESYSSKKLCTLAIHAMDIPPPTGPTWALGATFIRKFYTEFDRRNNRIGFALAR

Cathepsin D = Cathepsin D (Homo sapiens, UniProt P07339); experiment: Inhibition against human cathepsin D was determined
Sequence of Cathepsin D (P07339 65-162 limits assumed): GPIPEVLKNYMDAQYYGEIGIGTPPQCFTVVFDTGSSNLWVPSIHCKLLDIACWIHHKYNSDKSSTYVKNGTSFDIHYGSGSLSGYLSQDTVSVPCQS
Sequence of Cathepsin D (P07339 169-412 limits assumed): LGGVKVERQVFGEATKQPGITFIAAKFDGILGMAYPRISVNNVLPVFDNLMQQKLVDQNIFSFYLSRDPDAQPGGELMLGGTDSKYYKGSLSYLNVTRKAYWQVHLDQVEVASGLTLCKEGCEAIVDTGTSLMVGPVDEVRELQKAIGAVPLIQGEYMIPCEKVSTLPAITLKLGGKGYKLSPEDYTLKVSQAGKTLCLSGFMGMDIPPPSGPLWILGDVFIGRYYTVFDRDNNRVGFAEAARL

| SMILES | IC50 (H9 [1]) [nM] | K inact/Ki [2] [M⁻¹ s⁻¹] | Ki [3] [nM] | IC50 (H9 [4]) [nM] | IC50 (Renin) | IC50 (Cathepsin D) [nM] |
| --- | --- | --- | --- | --- | --- | --- |
| CCN(c1ccccc1)S(=O)(=O)CC[C@@H]1O[C@@H]1[C@H](Cc1ccccc1)NC(=O)[C@@H](NC(=O)OCc1ccccc1)C(C)(C)S(C)(=O)=O | 13.8 | 717000 | 4.6 |  |  |  |
| CC(C)C(NC(=O)C[C@@H]1O[C@@H]1[C@H](Cc1ccccc1)NC(=O)[C@H](CC(N)=O)NC(=O)c1ccc2ccccc2n1)C(C)C | 20 | 3.33e+06 |  |  |  |  |
| CCN(C(C)C)S(=O)(=O)CC[C@@H]1O[C@@H]1[C@H](Cc1ccccc1)NC(=O)[C@@H](NC(=O)OCc1ccccc1)C(C)(C)S(C)(=O)=O |  | 1.63e+06 | 0.8 | 10.9 |  |  |
| CCN(c1ccccc1)S(=O)(=O)CC[C@@H]1O[C@@H]1[C@H](Cc1ccccc1)NC(=O)[C@@H](NC(=O)c1ccc2ccccc2n1)C(C)(C)S(C)(=O)=O | 10.7 | 650000 | 5 |  |  |  |
| CC(C)(C)NS(=O)(=O)CC[C@@H]1O[C@@H]1[C@H](Cc1ccccc1)NC(=O)[C@@H](NC(=O)OCc1ccccc1)C(C)(C)S(C)(=O)=O | 20.2 | 1.33e+06 | 0.7 |  |  |  |
| CCN(CC(C)C)S(=O)(=O)CC[C@@H]1O[C@@H]1[C@H](Cc1ccccc1)NC(=O)[C@@H](NC(=O)OCc1ccccc1)C(C)(C)S(C)(=O)=O | 10.7 | 1.15e+06 | 2.9 |  |  |  |
| CC(C)(C)NS(=O)(=O)CC[C@@H]1O[C@@H]1[C@H](Cc1ccccc1)NC(=O)C(CC(N)=O)NC(=O)c1ccc2ccccc2n1 (stereo partly specified) | 30 | 250000 | 12.6 |  |  |  |
| CCN(C(C)C)S(=O)(=O)CC[C@@H]1O[C@@H]1[C@H](Cc1ccccc1)NC(=O)[C@@H](NC(=O)c1ccc2ccccc2n1)C(C)(C)S(C)(=O)=O | 6.6 | 483000 | 7 |  | Not Active | 8200 |
| CCN(C(C)C)S(=O)(=O)CC[C@@H]1O[C@@H]1[C@H](Cc1ccccc1)NC(=O)[C@@H](NC(=O)c1cccs1)C(C)(C)S(C)(=O)=O | 18.2 | 1.05e+06 | 3.1 |  |  |  |
| CC(C)N(C(=O)c1ccccc1)S(=O)(=O)CC[C@@H]1O[C@@H]1[C@H](Cc1ccccc1)NC(=O)[C@@H](NC(=O)OCc1ccccc1)C(C)(C)S(C)(=O)=O | 15 | 917000 | 3.6 |  |  |  |
